Key:
Type in all cases: biochemical
[1] = target: T1, JAK2(h) (Homo sapiens, UniProt O60674); test: Other kinases, single-concentration inhibition (Table 3); conditions: 1 μM
T1 construct: purchased Caliper Life Sciences
Procedure, shortened: (§1)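 Each kinase was preincubated with a single compound concentration, and the reaction was then initiated with a labelled peptide substrate/ATP mix. After 90 min at 25 °C, reactions were quenched with EDTA and conversion was read by mobility shift.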

[2] = target: T2, Ret(h) (Homo sapiens, UniProt P07949); test: as above; conditions: 1 μM
T2 construct: purchased Caliper Life Sciences
Procedure, shortened: as §1

[3] = target: T3, Abl(T315I)(h) (Homo sapiens, UniProt P00519, T315I); test: as above; conditions: 1 μM
T3 construct: purchased Caliper Life Sciences
Procedure, shortened: as §1

[4] = target: T4, JNK1-alpha-1 (Homo sapiens, UniProt P45983); test: Other kinases, inhibition at 1 μM (Table 3)
T4 construct: purchased Caliper Life Sciences
Procedure: (§2) The Aurora and other kinase assays described here were performed on two Caliper Life Sciences systems, the LC3000 and the Desktop Profiler. These provide data on enzyme activity via measurement of the relative amounts of phosphorylated or unphosphorylated fluorescently labelled substrate peptide at the end of an enzymatic reaction. These different states of peptide are resolved by applying a potential difference across the sample. The presence of a charged phosphate group on the product (as opposed to the substrate) causes a different peptide mobility between the two peptides. This is visualized by excitation of a fluorescent label on the substrate and product peptides and represented as peaks within the analysis software.
(§3) The Desktop Profiler utilizes the same principal as the LC 3000 for calculating percentage conversion of a substrate to product. Caliper Life Sciences provided proprietary flash frozen pre-made 384 well plates containing selected kinases. Each column in the 384 well plate contained a particular selected kinase. A second plate, the ‘substrate plate’ contained a mix of fluorescently labeled peptide substrate and ATP. These were arranged in columns so that transfer for substrate plate to enzyme plate provided the correct enzyme with the correct substrate/ATP concentration.
(§4) Compounds were added to a thawed enzyme plate in the desired format, in single concentrations. Reactions were initiated by transfer of the ubstrate/ATP mix from the substrate plate. The enzyme plate was incubated for 90 mins at 25 °C. The reaction was stopped by addition of […] of Stop Buffer (100 mM HEPES pH 7.5, 0.015% Brij-35, 10 mM EDTA (Sigma, E7889)).
(§5) Plates were read in a manner identical to that of the LC3000, and the ratio between substrate and product peaks provided the activity of the enzyme in that well. This was best represented by a plate heat map which colors each well by percent inhibition as compared to positive and negative controls (no inhibitors and no ATP respectively).

[5] = target: T5, HIPK2 (Homo sapiens, UniProt Q9H2X6); test: Other kinases, inhibition at 1 μM (Table 3)
T5 construct: purchased Caliper Life Sciences
Procedure: as §2, §3, §4, §5

[6] = target: T6, MNK-2-alpha (Homo sapiens, UniProt Q9HBH9); test: Other kinases, inhibition at 1 μM (Table 3)
T6 construct: purchased Caliper Life Sciences
Procedure: as §2, §3, §4, §5

[7] = target: T7, SGK (Homo sapiens, UniProt O00141); test: Other kinases, inhibition at 1 μM (Table 3)
T7 construct: purchased Caliper Life Sciences
Procedure: as §2, §3, §4, §5

[8] = target: T8, PKD2 (Homo sapiens, UniProt Q9BZL6); test: Other kinases, inhibition at 1 μM (Table 3)
T8 construct: purchased Caliper Life Sciences
Procedure: as §2, §3, §4, §5

[9] = target: T9, DYRK3 (Homo sapiens, UniProt O43781); test: Other kinases, inhibition at 1 μM (Table 3)
T9 construct: purchased Caliper Life Sciences
Procedure: as §2, §3, §4, §5

[10] = target: T10, Nek2a (Homo sapiens, UniProt P51955); test: Other kinases, inhibition at 1 μM (Table 3)
T10 construct: purchased Caliper Life Sciences
Procedure: as §2, §3, §4, §5

[11] = target: T11, SAPK3 (Homo sapiens, UniProt P53778); test: Other kinases, inhibition at 1 μM (Table 3)
T11 construct: purchased Caliper Life Sciences
Procedure: as §2, §3, §4, §5

[12] = target: T12, SAPK2-alpha (Homo sapiens, UniProt Q16539); test: Other kinases, inhibition at 1 μM (Table 3)
T12 construct: purchased Caliper Life Sciences
Procedure: as §2, §3, §4, §5

[13] = target: T13, PRAK (Homo sapiens, UniProt Q8IW41); test: Other kinases, inhibition at 1 μM (Table 3)
T13 construct: purchased Caliper Life Sciences
Procedure: as §2, §3, §4, §5

[14] = target: T14, MST2 (Homo sapiens, UniProt Q13188); test: Other kinases, inhibition at 1 μM (Table 3)
T14 construct: purchased Caliper Life Sciences
Procedure: as §2, §3, §4, §5

[15] = target: T15, IRR (Homo sapiens, UniProt P14616); test: Other kinases, inhibition at 1 μM (Table 3)
T15 construct: purchased Caliper Life Sciences
Procedure: as §2, §3, §4, §5

[16] = target: T16, PKC-alpha (Homo sapiens, UniProt P17252); test: Other kinases, inhibition at 1 μM (Table 3)
T16 construct: purchased Caliper Life Sciences
Procedure: as §2, §3, §4, §5

[17] = target: T17, MAPKAP-K1-beta (Homo sapiens, UniProt P51812); test: Other kinases, inhibition at 1 μM (Table 3)
T17 construct: purchased Caliper Life Sciences
Procedure: as §2, §3, §4, §5

[18] = target: T18, PDK1 (Homo sapiens, UniProt O15530); test: Other kinases, inhibition at 1 μM (Table 3)
T18 construct: purchased Caliper Life Sciences
Procedure: as §2, §3, §4, §5

[19] = target: T19, PAK5 (Homo sapiens, UniProt Q9P286); test: Other kinases, inhibition at 1 μM (Table 3)
T19 construct: purchased Caliper Life Sciences
Procedure: as §2, §3, §4, §5

[20] = target: T20, BTK (Homo sapiens, UniProt Q06187); test: Other kinases, inhibition at 1 μM (Table 3)
T20 construct: purchased Caliper Life Sciences
Procedure: as §2, §3, §4, §5

[21] = target: T21, EphA2 (Homo sapiens, UniProt P29317); test: Other kinases, inhibition at 1 μM (Table 3)
T21 construct: purchased Caliper Life Sciences
Procedure: as §2, §3, §4, §5

[22] = target: T22, CSK (Homo sapiens, UniProt P41240); test: Other kinases, inhibition at 1 μM (Table 3)
T22 construct: purchased Caliper Life Sciences
Procedure: as §2, §3, §4, §5

[23] = target: T23, CAMKKb (Homo sapiens, UniProt Q96RR4); test: Other kinases, inhibition at 1 μM (Table 3)
T23 construct: purchased Caliper Life Sciences
Procedure: as §2, §3, §4, §5

[24] = target: T24, PBK (Homo sapiens, UniProt Q96KB5); test: Other kinases, inhibition at 1 μM (Table 3)
T24 construct: purchased Caliper Life Sciences
Procedure: as §2, §3, §4, §5

T1 sequence (O60674 whole entry): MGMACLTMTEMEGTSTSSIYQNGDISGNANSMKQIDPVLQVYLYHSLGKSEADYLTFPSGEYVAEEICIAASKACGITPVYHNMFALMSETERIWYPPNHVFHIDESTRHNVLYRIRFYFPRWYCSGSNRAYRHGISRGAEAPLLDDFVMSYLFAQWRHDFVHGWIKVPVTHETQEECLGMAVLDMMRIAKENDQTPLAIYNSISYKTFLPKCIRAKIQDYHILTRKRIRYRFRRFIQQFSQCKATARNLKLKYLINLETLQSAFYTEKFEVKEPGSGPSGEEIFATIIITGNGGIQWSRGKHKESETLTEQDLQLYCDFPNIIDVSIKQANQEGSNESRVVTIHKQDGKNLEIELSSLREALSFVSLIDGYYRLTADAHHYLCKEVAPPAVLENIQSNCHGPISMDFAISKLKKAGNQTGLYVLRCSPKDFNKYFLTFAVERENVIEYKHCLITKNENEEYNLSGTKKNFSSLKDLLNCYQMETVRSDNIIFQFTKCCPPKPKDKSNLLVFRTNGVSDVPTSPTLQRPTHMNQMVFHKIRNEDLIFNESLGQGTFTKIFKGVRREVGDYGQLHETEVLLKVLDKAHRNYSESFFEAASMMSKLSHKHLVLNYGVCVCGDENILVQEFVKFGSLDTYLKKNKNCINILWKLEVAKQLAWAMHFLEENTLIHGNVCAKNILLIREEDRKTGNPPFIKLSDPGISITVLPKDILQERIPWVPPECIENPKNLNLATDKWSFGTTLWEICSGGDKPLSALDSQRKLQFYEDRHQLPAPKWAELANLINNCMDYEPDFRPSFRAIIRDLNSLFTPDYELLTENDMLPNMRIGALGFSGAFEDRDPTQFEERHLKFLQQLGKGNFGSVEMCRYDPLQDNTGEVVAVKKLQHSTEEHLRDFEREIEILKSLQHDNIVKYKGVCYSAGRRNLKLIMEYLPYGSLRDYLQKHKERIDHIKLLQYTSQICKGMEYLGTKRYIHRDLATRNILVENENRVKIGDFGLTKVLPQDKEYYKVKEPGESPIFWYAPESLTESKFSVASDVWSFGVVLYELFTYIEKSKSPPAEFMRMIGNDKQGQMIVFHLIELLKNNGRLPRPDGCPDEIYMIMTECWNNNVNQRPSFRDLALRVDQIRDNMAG
T2 sequence (P07949 29-1114): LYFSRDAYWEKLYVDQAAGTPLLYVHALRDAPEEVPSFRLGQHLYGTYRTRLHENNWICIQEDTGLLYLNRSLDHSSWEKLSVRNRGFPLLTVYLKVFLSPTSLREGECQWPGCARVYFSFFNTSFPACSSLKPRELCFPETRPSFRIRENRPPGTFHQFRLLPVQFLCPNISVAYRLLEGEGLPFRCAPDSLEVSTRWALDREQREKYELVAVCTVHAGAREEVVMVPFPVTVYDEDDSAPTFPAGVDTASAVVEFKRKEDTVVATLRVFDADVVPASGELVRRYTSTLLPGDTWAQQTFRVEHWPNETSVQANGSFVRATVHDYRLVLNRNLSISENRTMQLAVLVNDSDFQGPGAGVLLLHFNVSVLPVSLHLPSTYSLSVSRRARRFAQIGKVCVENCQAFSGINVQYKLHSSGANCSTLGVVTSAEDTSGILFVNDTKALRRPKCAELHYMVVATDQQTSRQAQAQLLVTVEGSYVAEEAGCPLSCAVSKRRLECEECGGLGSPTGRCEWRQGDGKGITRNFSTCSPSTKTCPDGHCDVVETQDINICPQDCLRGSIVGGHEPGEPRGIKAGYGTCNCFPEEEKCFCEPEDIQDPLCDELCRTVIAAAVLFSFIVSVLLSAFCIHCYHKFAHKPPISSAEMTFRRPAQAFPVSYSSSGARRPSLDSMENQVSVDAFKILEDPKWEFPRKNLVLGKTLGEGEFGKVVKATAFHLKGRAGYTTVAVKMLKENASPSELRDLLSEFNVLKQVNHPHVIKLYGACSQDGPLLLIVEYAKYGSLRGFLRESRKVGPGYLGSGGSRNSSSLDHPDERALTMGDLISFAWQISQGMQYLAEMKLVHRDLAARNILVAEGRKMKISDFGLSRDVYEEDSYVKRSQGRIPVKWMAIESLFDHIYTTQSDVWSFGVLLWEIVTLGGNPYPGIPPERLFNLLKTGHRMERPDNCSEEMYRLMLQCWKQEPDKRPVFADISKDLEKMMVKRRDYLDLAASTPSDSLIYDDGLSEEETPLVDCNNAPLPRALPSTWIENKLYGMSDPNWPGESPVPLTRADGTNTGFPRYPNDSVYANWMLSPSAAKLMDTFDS
T19 sequence (Q9P286 whole entry): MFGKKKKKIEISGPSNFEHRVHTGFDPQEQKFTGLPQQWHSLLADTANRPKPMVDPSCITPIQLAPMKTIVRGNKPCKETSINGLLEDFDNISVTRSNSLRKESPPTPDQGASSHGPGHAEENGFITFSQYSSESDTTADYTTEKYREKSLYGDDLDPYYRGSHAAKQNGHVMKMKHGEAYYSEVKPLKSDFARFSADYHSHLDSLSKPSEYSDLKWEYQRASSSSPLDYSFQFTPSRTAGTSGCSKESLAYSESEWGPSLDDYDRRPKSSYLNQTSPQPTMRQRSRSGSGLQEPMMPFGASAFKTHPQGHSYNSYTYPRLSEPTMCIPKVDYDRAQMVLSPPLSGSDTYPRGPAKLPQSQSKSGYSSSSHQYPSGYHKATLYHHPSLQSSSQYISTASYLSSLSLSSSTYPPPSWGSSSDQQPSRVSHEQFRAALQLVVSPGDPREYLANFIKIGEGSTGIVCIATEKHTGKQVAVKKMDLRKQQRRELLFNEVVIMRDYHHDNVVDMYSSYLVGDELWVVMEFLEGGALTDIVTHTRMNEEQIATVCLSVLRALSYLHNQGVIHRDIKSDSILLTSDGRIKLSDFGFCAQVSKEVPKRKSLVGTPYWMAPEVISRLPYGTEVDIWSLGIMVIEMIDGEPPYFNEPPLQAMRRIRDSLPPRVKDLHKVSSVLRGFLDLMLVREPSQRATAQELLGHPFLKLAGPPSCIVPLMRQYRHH
T24 sequence (Q96KB5 whole entry, species assumed): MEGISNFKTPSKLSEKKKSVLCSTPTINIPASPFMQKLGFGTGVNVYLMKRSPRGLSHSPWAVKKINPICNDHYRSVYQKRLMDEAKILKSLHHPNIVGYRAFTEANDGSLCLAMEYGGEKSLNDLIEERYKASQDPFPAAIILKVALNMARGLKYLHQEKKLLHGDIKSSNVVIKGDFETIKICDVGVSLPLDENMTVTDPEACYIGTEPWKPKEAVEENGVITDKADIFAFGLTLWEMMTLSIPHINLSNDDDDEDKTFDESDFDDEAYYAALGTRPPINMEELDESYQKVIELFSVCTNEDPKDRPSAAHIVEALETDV
T17 sequence (P51812 whole entry): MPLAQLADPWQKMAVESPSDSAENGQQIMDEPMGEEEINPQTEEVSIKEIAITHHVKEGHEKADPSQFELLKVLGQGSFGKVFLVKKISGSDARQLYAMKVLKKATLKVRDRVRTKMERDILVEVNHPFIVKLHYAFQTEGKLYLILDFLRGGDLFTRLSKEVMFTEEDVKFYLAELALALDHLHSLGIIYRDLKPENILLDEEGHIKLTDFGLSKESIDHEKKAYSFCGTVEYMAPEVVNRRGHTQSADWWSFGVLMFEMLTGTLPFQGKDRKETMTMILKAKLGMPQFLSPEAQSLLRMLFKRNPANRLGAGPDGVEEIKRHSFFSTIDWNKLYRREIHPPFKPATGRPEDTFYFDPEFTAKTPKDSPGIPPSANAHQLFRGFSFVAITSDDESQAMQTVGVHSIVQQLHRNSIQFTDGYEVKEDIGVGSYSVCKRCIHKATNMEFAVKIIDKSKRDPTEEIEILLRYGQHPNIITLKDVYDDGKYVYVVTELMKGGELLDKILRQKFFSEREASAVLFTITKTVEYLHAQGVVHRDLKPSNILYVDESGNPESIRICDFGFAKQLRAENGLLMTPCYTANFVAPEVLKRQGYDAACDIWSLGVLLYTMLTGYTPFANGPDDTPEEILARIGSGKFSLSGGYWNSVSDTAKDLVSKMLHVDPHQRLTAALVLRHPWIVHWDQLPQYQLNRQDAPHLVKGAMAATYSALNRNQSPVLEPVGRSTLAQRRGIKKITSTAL
T9 sequence (O43781 whole entry, species assumed): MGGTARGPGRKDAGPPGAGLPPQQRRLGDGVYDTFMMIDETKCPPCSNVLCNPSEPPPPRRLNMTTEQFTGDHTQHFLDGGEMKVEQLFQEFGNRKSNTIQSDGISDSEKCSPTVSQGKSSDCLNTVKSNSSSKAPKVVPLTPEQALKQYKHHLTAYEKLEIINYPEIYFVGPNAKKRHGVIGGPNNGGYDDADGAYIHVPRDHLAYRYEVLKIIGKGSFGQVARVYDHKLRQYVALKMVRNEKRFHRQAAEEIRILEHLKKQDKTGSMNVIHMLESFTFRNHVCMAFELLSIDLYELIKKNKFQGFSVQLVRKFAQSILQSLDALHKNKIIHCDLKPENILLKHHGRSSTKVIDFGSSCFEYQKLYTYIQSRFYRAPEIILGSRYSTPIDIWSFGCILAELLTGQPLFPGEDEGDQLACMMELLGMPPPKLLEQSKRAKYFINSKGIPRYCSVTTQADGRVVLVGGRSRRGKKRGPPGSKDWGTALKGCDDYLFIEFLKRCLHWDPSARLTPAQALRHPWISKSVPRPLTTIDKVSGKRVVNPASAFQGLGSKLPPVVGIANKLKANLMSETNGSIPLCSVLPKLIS
T6 sequence (Q9HBH9 whole entry): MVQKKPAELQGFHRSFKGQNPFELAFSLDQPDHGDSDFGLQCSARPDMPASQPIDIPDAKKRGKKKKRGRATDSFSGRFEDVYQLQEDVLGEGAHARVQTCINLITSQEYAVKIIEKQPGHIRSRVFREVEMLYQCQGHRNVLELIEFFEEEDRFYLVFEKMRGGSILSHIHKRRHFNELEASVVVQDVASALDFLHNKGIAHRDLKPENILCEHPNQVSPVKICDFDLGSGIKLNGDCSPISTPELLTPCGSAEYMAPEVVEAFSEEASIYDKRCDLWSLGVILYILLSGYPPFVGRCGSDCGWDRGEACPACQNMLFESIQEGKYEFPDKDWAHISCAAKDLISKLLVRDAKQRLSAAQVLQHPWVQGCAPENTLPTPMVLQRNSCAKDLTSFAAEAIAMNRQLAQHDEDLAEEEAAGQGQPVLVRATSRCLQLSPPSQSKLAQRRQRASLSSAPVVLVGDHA

Compound: C=C[C@@H]1C[C@@H]2/C=C/COc3cccc(c3)Nc3ncc(F)c(n3)N[C@H]2[C@H]1C(N)=O (single isomer, unassigned) [Example 3]
- % inhibition JAK2(h) [1]: 89%
- % inhibition Ret(h) [2]: 78%
- % inhibition Abl(T315I)(h) [3]: 92%

Compound: CC[C@@H]1C[C@@H]2CCCOc3cccc(c3)Nc3ncc(F)c(n3)N[C@H]2[C@H]1C(N)=O (single isomer, unassigned) [Example 5]
- % inhibition JAK2(h) [1]: 94%
- % inhibition Ret(h) [2]: 52%
- % inhibition Abl(T315I)(h) [3]: 103%

Compound: CC[C@@H]1C[C@@H]2/C=C\COc3cccc(c3)Nc3ncc(F)c(n3)N[C@H]2[C@H]1C(N)=O (single isomer, unassigned) [Example 6]
- % inhibition JAK2(h) [1]: 108%
- % inhibition Ret(h) [2]: 12%
- % inhibition Abl(T315I)(h) [3]: 89%

Compound: Fc1cnc2nc1NC1CCCC(C1)OC/C=C\COc1cccc(c1)N2 (single isomer, unassigned) [Example 33, (16Z)-6-fluoro-14,19-dioxa-2,4,8,26-tetraazatetracyclo[18.3.1.1˜3,7˜0.1˜9,13˜]hexacosa-1(24),3(26),4,6,16,20,22-heptaene]
- inhibition at 1 µM [4]: 75%
- inhibition at 1 µM [5]: 68%
- % inhibition MNK-2-alpha [6]: 81%
- inhibition at 1 µM [7]: 87%
- % inhibition PKD2 [8]: 78%
- inhibition at 1 µM [9]: 99%
- % inhibition Nek2a [10]: 82%
- inhibition at 1 µM [11]: 87%
- inhibition at 1 µM [12]: 76%
- % inhibition PRAK [13]: 80%
- % inhibition MST2 [14]: 61%
- inhibition at 1 µM [15]: 69%
- % inhibition PKC-alpha [16]: 57%
- % inhibition MAPKAP-K1-beta [17]: 68%
- % inhibition PDK1 [18]: 91%
- % inhibition PAK5 [19]: 92%
- % inhibition BTK [20]: 37%
- inhibition at 1 µM [21]: 81%
- inhibition at 1 µM [22]: 86%
- % inhibition CAMKKb [23]: 81%
- % inhibition PBK [24]: 89%

Compound: NC(=O)[C@H]1[C@H]2C[C@H]3[C@H]1Nc1nc(ncc1F)Nc1cccc(c1)CSS[C@@H]3C2 [Example 10]
- % inhibition JAK2(h) [1]: 95%
- % inhibition Ret(h) [2]: 7%
- % inhibition Abl(T315I)(h) [3]: 47%
- inhibition at 1 µM [4]: 14%
- inhibition at 1 µM [5]: 23%
- % inhibition MNK-2-alpha [6]: 82%
- inhibition at 1 µM [7]: 82%
- % inhibition PKD2 [8]: 73%
- inhibition at 1 µM [9]: 78%
- % inhibition Nek2a [10]: 66%
- inhibition at 1 µM [11]: 72%
- inhibition at 1 µM [12]: 89%
- % inhibition PRAK [13]: 84%
- % inhibition MST2 [14]: 8%
- inhibition at 1 µM [15]: 72%
- % inhibition PKC-alpha [16]: 56%
- % inhibition MAPKAP-K1-beta [17]: 19%
- % inhibition PDK1 [18]: 73%
- % inhibition PAK5 [19]: 72%
- % inhibition BTK [20]: 2%
- inhibition at 1 µM [21]: 25%
- inhibition at 1 µM [22]: 56%
- % inhibition CAMKKb [23]: 73%
- % inhibition PBK [24]: 99%

Compound: NC(=O)[C@H]1[C@H]2C[C@H]3[C@H]1Nc1nc(ncc1F)Nc1cccc(c1)C(=O)CS[C@@H]3C2 [Example 11]
- % inhibition JAK2(h) [1]: 121%
- % inhibition Ret(h) [2]: 56%
- % inhibition Abl(T315I)(h) [3]: 95%
